Values after ≈ are worked out from the molar mass of the structure shown.

Data on one compound can be found in patent US4560509A, “Antibiotic A39079 factor S-1” (Eli Lilly and Company, priority 1983, dated 1985).

The test system of data set [1] is Enterobacter cloacae 265A. Description: standard agar-dilution MIC assay. The data set is classed as cell-based. Conditions: agar dilution; Enterobacter cloacae 265A; read-out: MIC. An excerpt:
(§1) Table V summarizes the minimal inhibitory concentrations (MIC) at which factor S-1 inhibits certain organisms as determined by standard agar-dilution assays. In Table V, the activity of factor S-1 is compared with that of rifampin.
(In general: In agar dilution the substance is mixed into plates at graded concentrations.)

Data set [2] has as its system Haemophilus influenzae C.L. The data set can be described thus: standard agar-dilution MIC assay. The data set is classed as cell-based.
From the text: as §1

The subject of data set [3] is Proteus morganii PR15. Description: standard agar-dilution MIC assay. In kind it is cell-based. Conditions: Morganella morganii; agar dilution; Proteus morganii PR15; read-out: MIC.
From the text: as §1

In data set [4] the test system is Salmonella typhi X514. The data set can be described thus: standard agar-dilution MIC assay. In kind it is cell-based. Conditions: Salmonella enterica.
From the text: as §1

Data set [5] has as its system Streptococcus faecium ATCC 9790. The data set can be described thus: standard agar-dilution MIC assay. In kind it is cell-based. Conditions: Enterococcus faecium, ATCC9790; agar dilution; Streptococcus faecium ATCC 9790; read-out: MIC.
From the text: as §1

Data set [6] deals with pathogenic bacteria. The data set can be described thus: growth inhibition of pathogenic bacteria (general statement). The data set is classed as cell-based.
From the text: as §1

Data set [7] relates to bacteria normally present in the monogastric digestive system. The data set can be described thus: glucose sparing / feed-utilization efficiency in monogastric animals. Conditions: statement in words. The text has this: Yet another important property of factor S-1 is its ability to improve feed-utilization efficiency in monogastric animals. Commercially important monograstric animals include chickens and pigs. In addition, young ruminants, especially those still unweaned, function as monogastric animals. In the monogastric animal, bacteria and the host compete for nutrients in the digestive process. Agents which cause the bacteria to use less efficient substrates, leaving more efficient substrates such as glucose for the host animal, increase the feed-utilization efficiency of the host animal.

Data set [8] can be described thus: titration. The data set is classed as physicochemical. Conditions: 66% aqueous dimethylformamide.
Data set [9] is described as follows: solubility. The data set is classed as physicochemical.
The nature of data set [10]: stability in aqueous methanol solutions. The data set is classed as physicochemical. On the procedure: (7) Stability: Stability studies on factor S-1 in aqueous methanol solutions were run at pH levels of 2,5,7 and 9 and at temperatures of 4° C., 25° C., and 37° C.
Data set [11] relates to Micrococcus luteus. Description: antibiotic activity of column fractions. The data set is classed as cell-based. On the procedure: Whole broth (100 L), prepared in a manner similar to that of Example 1, Section B, was filtered using a filter aid (Hyflo Supercel, Johns-ManvilleCorp.). The filtered broth (86 L) is adjusted to pH 2 with 5N hydrochloric acid and then is extracted twice with ethyl acetate (1/2 volumes). The ethyl acetate extracts are concentrated under vacuum to give an oily residue (49 g). This residue is dissolved in methanol and placed on a 10-L Diaion HP-20 column (Mitsubishi Industries). The column is washed with water (500 ml) and eluted with acetonitrile:water (30 L of 3:7 and 50 L of 3:2) and acetonitrile (20 L). Elution is carried out at a rate of 100 ml/min., collecting 4-liter fractions. Fractions are tested for antibiotic activity against Micrococcus luteus, Escherichia coli, and Neurospora crassa.
Factor S-1 is further purified in 200-mg portions by dissolving it in methanol and chromatographing the solution on a 1"×30-cm column packed with Zorbax ODS (12μ) (E. I. duPont). The column is eluted at 10 ml/min with 45% acetonitrile in 0.01% trifluoroacetic acid (400 ml) and then with a 400-ml gradient of from 45%-100% acetonitrile in 0.01% trifluoroacetic acid. Fractions are checked by UV absorption at 264 nm and by disc bioassay against M. luteus. Fractions containing only factor S-1 are combined, concentrated and lyophilized to dryness. […]

As a reminder, the pKa is the pH at which an ionisable group is half protonated. For the compound `CC(=O)OC1C(C)C(O)C=COC2(C)Oc3c(C)c(O)c4c(c3C2=O)C(=O)C(C)=C(NC(=O)C=CC=CC(C)C(O)C(C)C(O)C1C)C4=O` (stereo not shown) [Factor S-1], the MIC amounted to 32 µg/mL (≈ 46.9 µM) in data set [1]; 0.25 µg/mL (≈ 0.367 µM) in [2]; 8 µg/mL (≈ 11.7 µM) in data set [3]; 32 µg/mL (≈ 46.9 µM) in data set [4]; 1 µg/mL (≈ 1.47 µM) in [5]. In addition, the “inhibition of growth of pathogenic bacteria” value in data set [6] is “inhibits the growth of a broad spectrum of pathogenic bacteria, especially gram-positive bacteria”. In addition, in data set [7], the “effect on consumption of glucose by bacteria (glucose sparing)” value is reported as “prevents the consumption of glucose by bacteria normally present in the monogastric digestive system”. For the same compound, the pKa in data set [8] was 8. Further, the solubility entry in data set [9] (solvents such as methanol, acetonitrile and acetone) is “soluble”; in data set [9] (water), “only slightly soluble”. Further, the stability versus temperature result in data set [10] (4° C., 25° C. and 37° C.) was “most stable at 4° C., less stable at 25° C., and least stable at 37 °C”. In addition, the “stability versus pH” value in data set [10] (pH 2, 5, 7 and 9) is “more stable in slightly acidic, neutral and basic solutions than in strongly acidic solutions (pH=2)”. Also, the “activity against M. luteus” value in [11] was “active”.
